Tests used:
[1] = target: T1, human CD73 (Homo sapiens, UniProt P21589); assay: Inhibitor activity against CD73 in cell based assay (CD73 expressing CHO-K1 cells); details: CHO-K1 cells expressing human CD73, 150 μM AMP, 4 hours of incubation; read-out: CHO-K1 CELL VARIANT: CD73 IC50
T1 construct: expressed in transfected cells
T1 sequence (P21589 27-549): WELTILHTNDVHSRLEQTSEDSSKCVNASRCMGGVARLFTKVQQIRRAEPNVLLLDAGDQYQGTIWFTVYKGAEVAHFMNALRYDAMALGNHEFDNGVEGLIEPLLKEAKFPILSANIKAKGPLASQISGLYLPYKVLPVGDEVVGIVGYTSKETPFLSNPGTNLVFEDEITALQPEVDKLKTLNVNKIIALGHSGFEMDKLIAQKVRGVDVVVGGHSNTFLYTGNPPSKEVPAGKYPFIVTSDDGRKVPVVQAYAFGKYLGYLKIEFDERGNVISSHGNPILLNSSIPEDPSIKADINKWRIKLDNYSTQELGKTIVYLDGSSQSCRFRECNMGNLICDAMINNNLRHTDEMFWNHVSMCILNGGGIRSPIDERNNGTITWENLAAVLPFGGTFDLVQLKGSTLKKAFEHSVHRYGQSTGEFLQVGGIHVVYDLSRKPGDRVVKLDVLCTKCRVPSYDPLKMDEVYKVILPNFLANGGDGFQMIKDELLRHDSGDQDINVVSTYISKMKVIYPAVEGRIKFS
Method: Determine Inhibitor Activity Against CD73 in Cell Based Assay
CD73 expressing CHO-K1 cell clones were generated upon stable transfection of a plasmid expressing human CD73 under the control of CMV promoter. Cells were selected in Ham's F-12K (Kaighn's) media supplemented with 10% fetal bovine serum and 1 mg/ml G418 at 37° C. in a humidified incubator supplied with 5% CO2. The assays were performed as follows. Cells were seeded in a 96 well plate in 50 μL of culture media at a density of 1×10^4 per well. Compound at a maximal concentration of 5 mM was serially diluted 1:3 in DMSO for a total of 8 point titration. A 2 μL aliquot of each dilution point was added to 248 μL culture media and 25 µL was added to each well, providing 10 μM compound at the maximum concentration point. AMP was diluted in culture media and 25 μL was added to each well with a final concentration of 150 μM. 4 wells containing 0.2% DMSO treated cells and AMP served as high controls and 4 wells containing media only with 0.2% DMSO and AMP served as low controls. After 4 hours of incubation, 20 μL of the supernatant was transferred to a 384 well plate. AMP level in supernatant was measured indirectly by adding 5 μL of CellTiter-Glo® 2.0 reagent and 5 μL of ATP with a final concentration of 1 μM. Following incubation of plate at room temperature for 30 minutes, luminescent signal was read on a Tecan plate reader. The percentage inhibition at individual concentrations relative to high and low controls was calculated. The data were analyzed by using nonlinear regression to generate IC50 values.

[2] = target: T2, Human CD73 (amino acid residues 27-549) (Homo sapiens, UniProt P21589); assay: CD73 enzymatic assay (luciferase-based indirect assay, CellTiter-Glo); type: biochemical; details: 0.4 nM CD73, 150 μM AMP, 1 hour at room temperature
T2 construct: Human CD73 (amino acid residues 27-549); His tag (N); made in house; host or cells: E. coli
T2 sequence (P21589 27-549): T1 sequence (P21589 27-549)
Summary of the method: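 His-tagged human CD73 (27-549) from E. coli, 0.4 nM, with 150 μM AMP in 50 mM HEPES pH 7.4, 0.01% Tween 20; 1 h at room temperature. AMP remaining read by CellTiter-Glo 2.0 luminescence with 1 μM final ATP after 30 min. IC50 from nonlinear regression of % inhibition.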

| SMILES | IC50 [1] [µM] | IC50 [2] [µM] |
| --- | --- | --- |
| CC(C)N1CCC(NC(=O)O[C@@H]2CCN(c3cn[nH]c(=O)c3Cl)C2)CC1 [P-0122, (R)-1-(5-chloro-6-oxo-1,6-dihydropyridazin-4-yl)pyrrolidin-3-yl (1-isopropylpiperidin-4-yl)carbamate] | 0.001 to 10 | 0.001 to 10 |
| O=C(NC1CCN(c2ncccn2)CC1)O[C@@H]1CCN(c2cn[nH]c(=O)c2Cl)C1 [P-0123, (R)-1-(5-chloro-6-oxo-1,6-dihydropyridazin-4-yl)pyrrolidin-3-yl (1-(pyrimidin-2-yl)piperidin-4-yl)carbamate] | 0.001 to 10 | 0.001 to 10 |
| CC(C)(C)OC(=O)NC1CCC(NC(=O)O[C@@H]2CCN(c3cn[nH]c(=O)c3Cl)C2)CC1 (stereo partly drawn) [P-0124, (R)-tert-butyl (1-(5-chloro-6-oxo-1,6-dihydropyridazin-4-yl)pyrrolidin-3-yl) cyclohexane-1,4-diyldicarbamate] | 0.001 to 10 | 0.001 to 10 |
| NC1CCC(NC(=O)O[C@@H]2CCN(c3cn[nH]c(=O)c3Cl)C2)CC1 (stereo partly drawn) [P-0125, (R)-1-(5-chloro-6-oxo-1,6-dihydropyridazin-4-yl)pyrrolidin-3-yl (4-aminocyclohexyl)carbamate] | 0.001 to 10 | 0.001 to 10 |
| N#Cc1c(N2CC[C@@H](OC(=O)NC3CCCCC3)C2)cn[nH]c1=O [P-0127, (R)-1-(5-cyano-6-oxo-1,6-dihydropyridazin-4-yl)pyrrolidin-3-yl cyclohexylcarbamate] | 0.001 to 10 | 0.001 to 10 |
| CS(=O)(=O)N[C@H]1CC[C@@H](NC(=O)O[C@@H]2CCN(c3cn[nH]c(=O)c3Cl)C2)CC1 [P-0128, (R)-1-(5-chloro-6-oxo-1,6-dihydropyridazin-4-yl)pyrrolidin-3-yl ((1s,4S)-4-(methylsulfonamido)cyclohexyl)carbamate] | 0.001 to 10 | 0.001 to 10 |
| CS(=O)(=O)N[C@H]1CC[C@H](NC(=O)O[C@@H]2CCN(c3cn[nH]c(=O)c3Cl)C2)CC1 [P-0129, (R)-1-(5-chloro-6-oxo-1,6-dihydropyridazin-4-yl)pyrrolidin-3-yl ((1r,4R)-4-(methylsulfonamido)cyclohexyl)carbamate] | 0.001 to 10 | 0.001 to 10 |
| O=C(NC1CCCCC1)O[C@@H]1CCN(c2cnn(-c3cccc(C(=O)O)c3)c(=O)c2Cl)C1 [P-0130, (R)-3-(5-chloro-4-(3-((cyclohexylcarbamoyl)oxy)pyrrolidin-1-yl)-6-oxopyridazin-1(6H)-yl)benzoic acid] | 10 to 100 | 10 to 100 |
| O=C(N[C@H]1CC[C@H](O)CC1)O[C@@H]1CCN(c2cn[nH]c(=O)c2Cl)C1 [P-0131, (R)-1-(5-chloro-6-oxo-1,6-dihydropyridazin-4-yl)pyrrolidin-3-yl ((1r,4R)-4-hydroxycyclohexyl)carbamate] | 0.001 to 10 | 0.001 to 10 |
| O=C(N[C@H]1CCCOC1)O[C@@H]1CCN(c2cn[nH]c(=O)c2Cl)C1 [P-0132, (R)-1-(5-chloro-6-oxo-1,6-dihydropyridazin-4-yl)pyrrolidin-3-yl ((S)-tetrahydro-2H-pyran-3-yl)carbamate] | 0.001 to 10 | 0.001 to 10 |
| CC1(NC(=O)O[C@@H]2CCN(c3cn[nH]c(=O)c3Cl)C2)CCOCC1 [P-0133, (R)-1-(5-chloro-6-oxo-1,6-dihydropyridazin-4-yl)pyrrolidin-3-yl (4-methyltetrahydro-2H-pyran-4-yl)carbamate] | 0.001 to 10 | 0.001 to 10 |
| O=C(NC1(C(F)(F)F)CC1)O[C@@H]1CCN(c2cn[nH]c(=O)c2Cl)C1 [P-0134, (R)-1-(5-chloro-6-oxo-1,6-dihydropyridazin-4-yl)pyrrolidin-3-yl (1-(trifluoromethyl)cyclopropyl) carbamate] | 0.001 to 10 | 0.001 to 10 |
| O=C(N[C@@H]1CCN(c2cn[nH]c(=O)c2Cl)C1)O[C@@H]1CCN(c2cn[nH]c(=O)c2Cl)C1 [P-0135, (R)-1-(5-chloro-6-oxo-1,6-dihydropyridazin-4-yl)pyrrolidin-3-yl ((R)-1-(5-chloro-6-oxo-1,6-dihydropyridazin-4-yl)pyrrolidin-3-yl)carbamate] | 0.001 to 10 | 0.001 to 10 |
| O=C(N[C@H]1CCN(c2cn[nH]c(=O)c2Cl)C1)O[C@@H]1CCN(c2cn[nH]c(=O)c2Cl)C1 [P-0136, (R)-1-(5-chloro-6-oxo-1,6-dihydropyridazin-4-yl)pyrrolidin-3-yl ((S)-1-(5-chloro-6-oxo-1,6-dihydropyridazin-4-yl)pyrrolidin-3-yl)carbamate] | 0.001 to 10 | 0.001 to 10 |
| Cn1cc(C2(NC(=O)O[C@@H]3CCN(c4cn[nH]c(=O)c4Cl)C3)CC2)cn1 [P-0137, (R)-1-(5-chloro-6-oxo-1,6-dihydropyridazin-4-yl)pyrrolidin-3-yl (1-(1-methyl-1H-pyrazol-4-yl)cyclopropyl)carbamate] | 0.001 to 10 | 0.001 to 10 |
| CC1(OC(=O)NC2CCC(F)(F)CC2)CCN(c2cn[nH]c(=O)c2Cl)C1 (centres unmarked) [P-0138, 1-(5-chloro-6-oxo-1,6-dihydropyridazin-4-yl)-3-methylpyrrolidin-3-yl (4,4-difluorocyclohexyl)carbamate] | 0.001 to 10 | 0.001 to 10 |

Next, values leading:

| IC50 [1] [µM] | IC50 [2] [µM] | SMILES |
| --- | --- | --- |
| 0.001 to 10 | 0.001 to 10 | O=C(NC1CCC(F)(F)C1)O[C@@H]1CCN(c2cn[nH]c(=O)c2Cl)C1 (stereo partly drawn) [P-0112, (R)-1-(5-chloro-6-oxo-1,6-dihydropyridazin-4-yl)pyrrolidin-3-yl (3,3-difluorocyclopentyl)carbamate] |
| 0.001 to 10 | 0.001 to 10 | CC1(NC(=O)O[C@@H]2CCN(c3cn[nH]c(=O)c3Cl)C2)CCOC1 (stereo partly drawn) [P-0113, (R)-1-(5-chloro-6-oxo-1,6-dihydropyridazin-4-yl)pyrrolidin-3-yl (3-methyltetrahydrofuran-3-yl)carbamate] |
| 0.001 to 10 | 0.001 to 10 | N#CC1CCC(NC(=O)O[C@@H]2CCN(c3cn[nH]c(=O)c3Cl)C2)CC1 (stereo partly drawn) [P-0114, (R)-1-(5-chloro-6-oxo-1,6-dihydropyridazin-4-yl)pyrrolidin-3-yl (4-cyanocyclohexyl)carbamate] |
| 0.001 to 10 | 0.001 to 10 | O=C(NC1CC2(CCC2)C1)O[C@@H]1CCN(c2cn[nH]c(=O)c2Cl)C1 [P-0115, (R)-1-(5-chloro-6-oxo-1,6-dihydropyridazin-4-yl)pyrrolidin-3-yl spiro[3.3]heptan-2-ylcarbamate] |
| 0.001 to 10 | 0.001 to 10 | CS(=O)(=O)NC1CCC(NC(=O)O[C@@H]2CCN(c3cn[nH]c(=O)c3Cl)C2)CC1 (stereo partly drawn) [P-0116, (R)-1-(5-chloro-6-oxo-1,6-dihydropyridazin-4-yl)pyrrolidin-3-yl (4-(methylsulfonamido)cyclohexyl)carbamate] |
| 0.001 to 10 | 0.001 to 10 | O=C(NC1CC2CCC1O2)O[C@@H]1CCN(c2cn[nH]c(=O)c2Cl)C1 (stereo partly drawn) [P-0117, (R)-1-(5-chloro-6-oxo-1,6-dihydropyridazin-4-yl)pyrrolidin-3-yl (7-oxabicyclo[2.2.1]heptan-2-yl)carbamate] |
| 0.001 to 10 | 0.001 to 10 | O=C(NC1(C2CC2)CC1)O[C@@H]1CCN(c2cn[nH]c(=O)c2Cl)C1 [P-0118, (R)-1-(5-chloro-6-oxo-1,6-dihydropyridazin-4-yl)pyrrolidin-3-yl [1,1′-bi(cyclopropan)]-1-ylcarbamate] |
| 0.001 to 10 | 0.001 to 10 | O=C(NC1CC(O)C1)O[C@@H]1CCN(c2cn[nH]c(=O)c2Cl)C1 (stereo partly drawn) [P-0119, (R)-1-(5-chloro-6-oxo-1,6-dihydropyridazin-4-yl)pyrrolidin-3-yl (3-hydroxycyclobutyl)carbamate] |
| 0.001 to 10 | 0.001 to 10 | O=C(NC1CCN(C2CCCC2)CC1)O[C@@H]1CCN(c2cn[nH]c(=O)c2Cl)C1 [P-0121, (R)-1-(5-chloro-6-oxo-1,6-dihydropyridazin-4-yl)pyrrolidin-3-yl (1-cyclopentylpiperidin-4-yl)carbamate] |

Reference: patent US12509444B2, “Compounds and methods for CD73 modulation and indications therefor” (Plexxikon Inc., priority 2019, dated 2025)
